One experiment relates to crises psychomotrices. The experiment is described as follows: Psychomotor seizures induced by low-frequency transcranial electrical stimulation. The experiment is classed as in vivo, souris. The settings on record: for Pourcentage de souris protégées une heure après traitement: groupes de 20 souris; for ED50: Mus musculus, po, read-out: DE50 capable de protéger 50 % des animaux contre les crises psychomotrices. An excerpt: (§1) Propriétés anticonvulsivantes : • On a effectué, pour déterminer ces propriétés anticonvulsivantes, des expérimentations sur le SCS 289 en procédant à des essais de protection : • - chez le lapin soumis à une transélectrification cranienne génératrice de crises épileptiformes de type "grand mal" ou recevant une infusion veineuse de pentétrazol provoquant l'apparition de myoclonies palpébrales; • - chez la souris recevant, par voie sous-cutanée des doses croissantes de pentétrazol entraînant convulsions et mort ou soumise à une transélectrification transcranienne à basse fréquence génératrice de crises psychomotrices.
On a également recherché si le SCS 289 était susceptible de protéger la souris contre le choc psychomoteur induit par une stimulation transcranienne à basse fréquence qui provoque, chez l'animal, un bref comportement de désorientation rappelant les attaques psychomotrices de l'homme.
Vis-à-vis des crises psychomotrices provoquées chez la souris par une stimulation électrique transcranienne à basse fréquence, le SCS 35 apparait plus actif que le SCS 289 : […]

In experiment [1] the test system is myoclonies palpébrales provoquées par l'infusion veineuse de pentétrazol. The experiment is described as follows: Intravenous pentetrazol infusion producing palpebral myoclonus (threshold seizures). The experiment is classed as in vivo, lapin. The settings on record: reference anticonvulsants, essais croisés, unit not given.
From the text: as §1
Les résultats quant à la protection contre les crises pentétrazoliques liminaires génératrices de myaclonies palpébrales figurent dans les tableaux ci-après.
L'administration préalable de SCS 289 retarde l'apparition des myoclonies palpébrales provoquées par l'infusion veineuse de pentétrazol.
Une expérimentation similaire pratiquée en essais croisés a donné les résultats suivants pour divers anticonvulsivants de référence : […]

Experiment [2] deals with crises épileptiformes consécutives à l'électrochoc. Kind of experiment: Maximal electroshock producing epileptiform 'grand mal' seizures (1st and 2nd electroshock). Type of experiment: in vivo, lapin. Conditions: for % d'animaux protégés complètement: one hour before second electroshock, groups of ten rabbits.
From the text: as §1
Ne considérant comme significative, que la protection complète, les traitements pratiqués une heure avant le second électrochoc ont conféré les protection suivantes (sur groupes de dix lapins) :
Si, par ailleurs, on considère la protection contre les crises toniques (hyperextension des pattes postérieures), il apparaît également une synergie particulièrement aux doses associées de 200 mg/kg de produits.

In another experiment the test system is crises pentétrazoliques. Kind of experiment: Convulsant and lethal effects of subcutaneous pentetrazol (125 mg/kg). The experiment is classed as in vivo, souris.
From the text: as §1
Pour déceler une synergie d'action antagoniste vis-à-vis des effets convulsivants et létaux du pentétrazol injecté par voie sous-cutanée chez la souris à la dose de 125 mg/kg, on a déterminé avec plus de précision la DE50 du SCS 289 et on a recherché si l'association avec le SCS 35 apportait un surcroit appréciable d'activité.
On n'a retenu comme significative que la protection à l'égard des effets létaux observés sur 24 heures.

Entries after “also recorded” stand apart in the source; their conditions may differ.

The source of these data is EP0187057A1, “2-Phenyl-isopropyl-allophanate, preparation and pharmaceutical application” (priority 1984, dated 1986).

In the case of `NC(=O)NC(=O)Cc1ccccc1` [Phénacétamide], the “Pourcentage de souris protégées une heure après traitement” value with crises psychomotrices (10 mg/kg voie digestive) is on record as 40%; in the experiment with crises psychomotrices (25 mg/kg voie digestive) it was 70%; in the experiment on crises psychomotrices (50 mg/kg voie digestive), 85%; in the experiment with crises psychomotrices (100 mg/kg voie digestive), 100%. For the same compound, in the experiment with crises psychomotrices (souris, voie digestive), the ED50 is approximately 14 mg/kg. For the same compound, the “Elévation du seuil myoclonique” value in experiment [1] (25 mg/kg) is reported as 32,4; in experiment [1] (50 mg/kg) it was 43,1; in experiment [1] (100 mg/kg) it was 58,2.
Consider `CCCC(CCC)C(=O)O` [Valproate de sodium], for which the figures for the “Pourcentage de souris protégées une heure après traitement” value with crises psychomotrices (50 mg/kg voie digestive), in the experiment with crises psychomotrices (100 mg/kg voie digestive) and in the experiment with crises psychomotrices (250 mg/kg voie digestive) were 15%, 40% and 85%, respectively. Besides, in the experiment with crises psychomotrices (souris, voie digestive), the ED50 is approximately 120 mg/kg. In addition, the “DL50/DE50 / Crises psycho-motrices” value in the experiment with crises psychomotrices (index thérapeutique absolu, souris) stood at 15. Also, the “DE50 psychodépressive / DE50 anticonvulsivante / Crises psycho-motrices” value in the experiment on crises psychomotrices (index thérapeutique relatif, psychodépressive = mean of DE50 for agilité, force musculaire, motricité, curiosité) worked out at 7. Besides, the “protection contre les crises électriques maximales” value in experiment [2] (500 mg/kg, same experimental conditions) is “absolument inefficace; also recorded: inactif”. Besides, the “Elévation du seuil myoclonique” value in experiment [1] (100 mg/kg) is 54,7; in experiment [1] (500 mg/kg), 65,5.
Consider `CCOC(=O)N(C(N)=O)c1ccccc1` [SCS 35, phényl-2 allophanate d'éthyle], for which the “Pourcentage de souris protégées une heure après traitement” value in the experiment on crises psychomotrices (5 mg/kg voie digestive) worked out at 60%; in the experiment on crises psychomotrices (10 mg/kg voie digestive), 90%; with crises psychomotrices (2,5 mg/kg voie digestive) it was 40%. For the same compound, the ED50 was determined as 3.5 mg/kg with crises psychomotrices (souris, voie digestive) and 55 mg/kg in the experiment with crises pentétrazoliques (Mus musculus, sc, 24 h, souris, read-out: DE50 à l'égard des crises pentétrazoliques maximales et létales). In the experiment with crises psychomotrices (souris, voie digestive), the “DE50 capable de protéger 50 % des animaux contre les crises psychomotrices” value is listed as 3,5 mg/kg. Besides, the “% de protection vis-à-vis de la létalité pentétrazolique” value with crises pentétrazoliques (10 mg/kg) worked out at 0%; with crises pentétrazoliques (20 mg/kg), 10%; with crises pentétrazoliques (50 mg/kg) it was 50%. In addition, the “% d'animaux protégés complètement” value in experiment [2] (100 mg/kg) is “Nul”; in experiment [2] (200 mg/kg), 10%. For the same compound, the “% d'animaux protégés contre les seules crises toniques” value is 60% in experiment [2] (100 mg/kg, hyperextension tonique des pattes postérieures) and 80% in experiment [2] (200 mg/kg).
